Laboratory results: patent US20050239826A1 (Boehringer Ingelheim International GmbH, priority 2004, published 2005)
Each block holds one molecule with its values, some of them ahead of it.

How the values were obtained:
hMCH-1R = biological target: T1, hMCH-1R (Homo sapiens, UniProt Q99705); test: MCH-1 receptor binding test (125I-MCH binding to membranes of hMCH-1R transfected CHO/Galpha16 cells); conditions: 100 pM 125I-MCH
T1 construct: expressed in transfected cells
Method: After the incubation the reaction is filtered using a cell harvester through 0.5% PEI treated fibreglass filters (GF/B, Unifilter Packard). The membrane-bound radioactivity retained on the filter is then determined after the addition of scintillator substance (Packard Microscint 20) in a measuring device (TopCount of Packard). […] The analysis of the concentration binding curve is carried out on the assumption of one receptor binding site.

[1] = rats, intraventricular administration, compared with control animals; cited from earlier work
[2] = long term trials, treated animals; cited from earlier work
[3] = rats; cited from earlier work

T1 sequence (Q99705 whole entry): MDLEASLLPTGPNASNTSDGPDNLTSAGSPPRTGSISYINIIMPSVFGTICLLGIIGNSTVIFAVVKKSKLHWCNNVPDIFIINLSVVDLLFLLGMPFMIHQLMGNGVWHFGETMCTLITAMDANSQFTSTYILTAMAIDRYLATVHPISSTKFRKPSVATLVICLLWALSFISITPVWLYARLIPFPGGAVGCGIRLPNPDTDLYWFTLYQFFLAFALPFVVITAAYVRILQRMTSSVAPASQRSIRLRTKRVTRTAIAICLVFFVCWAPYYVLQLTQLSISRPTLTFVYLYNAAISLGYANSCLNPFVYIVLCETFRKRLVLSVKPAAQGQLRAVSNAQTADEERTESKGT

IC50 (hMCH-1R): 10.9 nM
Structure (SMILES): Cc1cc(C#Cc2ccc(-c3ccc(Cl)cc3)cn2)ccc1OCCN1CC[C@H](O)[C@](C)(O)C1 [Example 1.5, (3R,4S)-1-(2-{4-[5-(4-chloro-phenyl)-pyridin-2-ylethynyl]-2-methyl-phenoxy}-ethyl)-3-methyl-piperidine-3,4-diol]

Structure (SMILES): CSCC[C@@H]1NC(=O)[C@@H](NC(=O)[C@H](CCCNC(=N)N)NC(=O)[C@H](CC(C)C)NC(=O)[C@H](CCSC)NC(=O)[C@H](CC(=O)O)NC(=O)[C@H](Cc2ccccc2)NC(=O)[C@@H](N)CC(=O)O)CSSC[C@@H](C(=O)N[C@@H](Cc2c[nH]c3ccccc23)C(=O)N[C@@H](CCC(N)=O)C(=O)N[C@H](C(=O)O)C(C)C)NC(=O)[C@@H]2CCCN2C(=O)[C@H](CCCNC(=N)N)NC(=O)[C@H](Cc2ccc(O)cc2)NC(=O)[C@H](C(C)C)NC(=O)[C@H](CCCNC(=N)N)NC(=O)CNC(=O)[C@H](CC(C)C)NC1=O [MCH, Melanin-concentrating hormone]
food intake [1]: food intake was increased

IC50 (hMCH-1R): 13.8 nM
Structure (SMILES): OCCCN(CCOc1ccc(C#Cc2ccc(-c3ccc(Cl)cc3)cn2)cc1)CC1(O)CC1 [Example 2.20, 1-{[(2-{4-[5-(4-chloro-phenyl)-pyridin-2-ylethynyl]-phenoxy}-ethyl)-(3-hydroxy-propyl)-amino]-methyl}-cyclopropanol]

Structure (SMILES): COCC1=C(C(=O)OC)[C@H](c2ccc(F)c(F)c2)N(C(=O)NCCCN2CCC(c3cccc(NC(C)=O)c3)CC2)C(=O)N1 [SNAP-7941]
body weight [2]: lose significant amounts of weight
effects in behavioural experiments [3]: anxiolytic and antidepressant effects
